Measured values reported in patent US10093675B2, “6,8-disubstituted-9-(heterocyclyl)purines, compositions containing these derivatives and their use in cosmetic and medicinal applications” (USTAV EXPERIMENTALNI BOTANIKY AV CR, V.V.I., priority 2014, dated 2018).

Experiments:
[1] = system: excised wheat leaf tips (Triticum aestivum cv. Hereward); assay: Senescence inhibition on winter wheat leaf segments (retention of chlorophyll); format: in vivo; settings: 10^−4 mol/L; 96 hours in the dark; activity of kinetin set at 100%
Method: (§1) Seeds of winter wheat, Triticum aestivum cv. Hereward, were washed under running water for 24 hours and then sown on vermiculite soaked with Knop's solution. They were placed in the grown chamber at 25° C. with a 16/8 hours light period at […]. After 7 days, the first leaf was fully developed and the second leaf had started to grow. A tip section of the first leaf, approximately 35 mm long, was removed from 5 seedlings and trimmed slightly to a combined weight of 100 mg. The basal ends of the five leaf tips were placed in the wells of a microtiter polystyrene plate containing […] of a cytokinin solution each. The entire plate was inserted into a plastic box lined with paper tissues soaked in distilled water to prevent leaf sections from drying out. After 96 hours incubation in the dark at 25° C., the leaves were removed and chlorophyll extracted by heating at 80 C for 10 min in 5 ml of 80% ethanol (v/v). The sample volume was then restored to 5 ml by the addition of 80% ethanol (v/v). The absorbance of the extract was recorded at 665 nm. In addition, chlorophyll extracts from fresh leaves and leaf tips incubated in deionized water were measured. From the obtained data, the concentration with highest activity was selected for each compound tested. Relative activity of the compound at this concentration was calculated (see Table 6 below). The activity obtained for 10^−4 M kinetin (Kin) was set as 100%. The values shown are means of five replicates and the whole experiment was repeated twice.
The compounds to be tested were dissolved in dimethylsulfoxide (DMSO) and the solution brought up to 10^−3 M with distilled water. […] As summarized in Table 6 below, the presence of C-8 substitutent was beneficial and led to increase of antisenescent properties.

[2] = system: detached leaves of Triticum aestivum cv. Hereward; assay: Membrane lipid peroxidation (MDA, TBA method) in detached wheat leaves during dark senescence; format: in vivo; settings: four days in the dark, Control 18.9 (±2.2)
Method: A typical symptom associated with senescence as a direct consequence of increased reactive oxygen species is lipid peroxidation. Therefore the levels of MDA, a decomposition product of lipid peroxidation, were measured in detached wheat leaves that were exposed to the prepared novel derivatives and kinetin for four days in the dark as described in Example 8. MDA levels were measured using a thiobarbituric acid (TBA) method. In detail, 100 mg of fresh plant material was homogenized by high speed shaking in a ball mill (MM301, Retsch, Germany) with 1 mL of 80% methanol. The crude extract was centrifuged at 10,000×g for 5 min, and 100 μL aliquot of supernatant was vortexed with 100 μL of 0.5% (w/v) TBA containing 0.1% (w/v) trichloroacetic acid, and the resulting solution was then incubated for 30 min at 95° C. The samples were quickly cooled on ice and recentrifuged for 5 min at 1000×g. The absorbance of supernatant was measured at 532 nm with background subtraction at 600 nm and the amount of MDA-TBA complex was calculated from the coefficient of absorbance 155 mM^−1cm^−1.
as §1

[3] = system: Salmonella typhimurium histidien auxotrophs TA98 and TA100; assay: Ames test; format: cell-based; settings: 2.5 to 5000 μg/plate; presence and absence of Aroclor-induced rat liver S9
Method: A number of tests related to the safety of have been carried out using conventionally accepted protocols and procedures. The results of these studies are summarized herein. Tests were carried out using DMSO as solvent and dose levels of compound 21, 24, 26, 27, 39, 41, 45, 48, 50, 52, 53, 54, 55, 56, 63, 64, 66, 67, 68, 69, 70, 71, 72, 74, 76, 124, 125, 126, 127, 128, 129, 130, 145, 146, 147, 149, 150, 151, 208, 216, 218 a 243 at 2.5, 5.0, 15, 50, 500, 1500, and 5000 μg/plate based upon standard protocol and procedures (Ames et al., Mutation Research, 31, 347-364 (1975); Maron et al., Mutation Research, 113, 173-215 (1983)).

[4] = system: human diploid fibroblasts (HDF cells; HDF25, HDF45, HDF80); assay: Inhibition of human cell aging: senescent cells by beta-galactosidase staining; format: cell-based; settings: for SENESCENT CELLS (%) HDF25: human diploid fibroblasts passage 25, beta-galactosidase staining; for SENESCENT CELLS (%) HDF45: human diploid fibroblasts passage 45, beta-galactosidase staining; for SENESCENT CELLS (%) HDF80: human diploid fibroblasts passage 80, beta-galactosidase staining
Method: In this example, human diploid fibroblasts (HDF cells of various passage levels: passage 25—designated HDF25; passage 45—designated HDF45; passage 80—designated HDF80) were stained for beta-galactosidase activity. The medium used for the cell cultivation was removed the cells were washed twice in […], and fixed in 2-3 ml of fixing solution comprised of a 2% formaldehyde and 0.2% glutaraldehyde in PBS. The cells were incubated at room temperature for 5 minutes, and then washed twice with PBS. The cells were subsequently incubated at 37° C. […] In this experiment, senescent cells, but no other cells were stained blue due to the action of beta-galactosidase on the substrate.

| SMILES | MDA (nmol/g FW) [2] | also measured |
| --- | --- | --- |
| Clc1nc2c(NCc3ccco3)ncnc2n1C1CCCCO1 (stereo not drawn) [Compound 1, 8-Chloro-6-furfurylamino-9-(tetrahydropyran-2-yl)-9H-purine] | 12.8 (±1.0) nmol/g FW | Activity (%) (s.d.), retention of chlorophyll [1]: 105 (±3) % |
| Oc1ccc(CNc2ncnc3c2nc(Cl)n3C2CCCCO2)cc1O (stereo not drawn) [Compound 10] | 12.8 (±1.1) nmol/g FW | Activity (%) (s.d.), retention of chlorophyll [1]: 132 (±7) % |
| Oc1ccc(CNc2ncnc3c2nc(Cl)n3C2CCCCO2)cc1 (stereo not drawn) [Compound 13] | 11.9 (±1.3) nmol/g FW | – |
| COc1cc(CNc2ncnc3c2nc(Cl)n3C2CCCCO2)cc(OC)c1O (stereo not drawn) [Compound 14] | 12.2 (±1.4) nmol/g FW | – |
| Oc1ccc(Nc2ncnc3c2nc(Cl)n3C2CCCCO2)cc1 (stereo not drawn) [Compound 16] | 11.6 (±1.0) nmol/g FW | – |
| Brc1nc2c(NCc3ccco3)ncnc2n1C1CCCCO1 (stereo not drawn) [Compound 21, 8-Bromo-6-furfurylamino-9-(tetrahydropyran-2-yl)-9H-purine] | 12.1 (±1.2) nmol/g FW | Activity (%) (s.d.), retention of chlorophyll [1]: 108 (±3) %; mutagenic response [3]: no positive mutagenic responses; SENESCENT CELLS (%) HDF25 [4]: 3%; SENESCENT CELLS (%) HDF45 [4]: 5%; SENESCENT CELLS (%) HDF80 [4]: 20% |
| C/C(=C/CNc1ncnc2c1nc(Br)n2C1CCCCO1)CO (stereo not drawn) [Compound 25] | 11.7 (±1.1) nmol/g FW | – |
| Oc1ccc(CNc2ncnc3c2nc(Br)n3C2CCCCO2)cc1O (stereo not drawn) [Compound 39] | 11.6 (±1.2) nmol/g FW | Activity (%) (s.d.), retention of chlorophyll [1]: 128 (±3) %; mutagenic response [3]: no positive mutagenic responses; SENESCENT CELLS (%) HDF25 [4]: 3%; SENESCENT CELLS (%) HDF45 [4]: 4%; SENESCENT CELLS (%) HDF80 [4]: 20% |
| Oc1ccc(Nc2ncnc3c2nc(Br)n3C2CCCCO2)cc1 (stereo not drawn) [Compound 44] | 10.7 (±0.8) nmol/g FW | – |
| C/C(=C/CNc1ncnc2c1nc(N(C)C)n2C1CCCO1)CO (stereo not drawn) [Compound 189] | 10.8 (±0.9) nmol/g FW | – |
| Nc1nc2c(NCc3ccco3)ncnc2n1C1CCCO1 (stereo not drawn) [Compound 197] | 9.2 (±0.6) nmol/g FW | – |
| Nc1nc2c(NCc3ccc(O)cc3)ncnc2n1C1CCCO1 (stereo not drawn) [Compound 201] | 8.7 (±0.7) nmol/g FW | – |
| Oc1nc2c(NCc3ccco3)ncnc2n1C1CCCO1 (stereo not drawn) [Compound 221] | 10.2 (±0.5) nmol/g FW | – |
| Oc1ccc(CNc2ncnc3c2nc(O)n3C2CCCO2)cc1 (stereo not drawn) [Compound 224] | 9.3 (±0.8) nmol/g FW | – |
| NCCNc1nc2c(NCc3ccco3)ncnc2n1C1CCCO1 (stereo not drawn) [Compound 233] | 9.8 (±0.7) nmol/g FW | – |
| NCCCNc1nc2c(NCc3ccco3)ncnc2n1C1CCCO1 (stereo not drawn) [Compound 238] | 9.4 (±0.7) nmol/g FW | – |
| NCCCOc1nc2c(NCc3ccco3)ncnc2n1C1CCCO1 (stereo not drawn) [Compound 241] | 9.6 (±0.8) nmol/g FW | – |
| CC(C)=CCNc1ncnc2c1nc(NCCO)n2C1CCCO1 (stereo not drawn) [Compound 245] | 9.5 (±0.6) nmol/g FW | – |
